Assay results taken from patent US8283474B2, “Azabicyclo (3.1.0) hexane derivatives useful as modulators of dopamine D3 receptors” (Glaxo Group Limited, priority 2004, dated 2012).

Molecular target: T1, dopamine D3 receptor (Homo sapiens, UniProt P35462)
T1 construct: expressed in transfected cells; membrane preparation
Assay: GTPγS scintillation proximity assay (GTPγS-SPA), antagonist format, CHO_D3 membranes
Type: biochemical
Details: difference in functional pKi at D3 versus the opposite enantiomer of the same Example
Method: Functional potency and intrinsic activity of compounds of this invention can be measured by the following GTPγS scintillation proximity assay (GTPγS-SPA). Cells used in the study are Chinese Hamster Ovary (CHO) Cells.
Cell membranes are prepared as follows. Cell pellets are resuspended in 10 volumes of 50 mM HEPES, 1 mM EDTA pH 7.4, using KOH. On the day the following proteases are added to the buffer just prior to giving the homogenisation buffer. 10^−6M Leupeptin(Sigma L2884)−5000×stock=5 mg/ml in buffer 25 ug/ml Bacitracin(Sigma B0125)−1000×stock=25 mg/ml in buffer 1 mM PMSF−1000×stock=17 mg/ml in 100% ethanol 2×10^−6M Pepstain A−1000×stock=2 mM in 100% DMSO
The cells are homogenised by 2×15 second bursts in a 1 litre Glass Waring blender in a class two biohazard cabinet. The resulting suspension is spun at 500 g for 20 mins (Beckman T21 centrifuge: 1550 rpm). The supernatant is withdrawn with a 25 ml pipette, aliquotted into pre-chilled centrifuge tubes and spun at 48,000 g to pellet membrane fragments (Beckman T1270: 23,000 rpm for 30 mins). The final 48,000 g pellet is resuspended in Homogenisation Buffer, (4× the volume of the original cell pellet). The 48,000 g pellet is resuspended by vortexing for 5 seconds and homogenized in a dounce homogenizer 10-15 stokes. The prep is distributed into appropriate sized aliquots, (200-1000 ul), in polypropylene tubes and store at −80° C. Protein content in the membrane preparations is evaluated with the Bradford protein assay.
The final top concentration of test drug is 3 uM in the assay and 11 points serial dilution curves 1:4 in 100% DMSO are carried out using a Biomek FX. The test drug at 1% total assay volume (TAV) is added to a solid, white, 384 well assay plate. 50% TAV of precoupled (for 90 mins at 4° C.) membranes, 5 μg/well, and Wheatgerm Agglutinin Polystyrene Scintillation Proximity Assay beads (RPNQ0260, Amersham), 0.25 mg/well, in 20 mM HEPES pH 7.4, 100 mM NaCl, 10 mM MgCl2, 60 μg/ml saponin and 30 μM GDP is added. The third addition was a 20% TAV addition of either buffer, (agonist format) or EC80 final assay concentration of agonist, Quinelorane, prepared in assay buffer (antagonist format). The assay was started by the addition of 29% TAV of GTPγ[^35S] 0.38 nM final (37 MBq/ml, 1160 Ci/mmol, Amersham). After all additions assay plates are spun down for 1 min at 1,000 rpm. Assay plates are counted on a Viewlux, 613/55 filter, for 5 min., between 2-6 hours after the final addition.
The effect of the test drug over the basal generates EC50 value by an iterative least squares curve fitting programme, expressed in the table as pEC50 (i.e. −log EC50). The ratio between the maximal effect of the test drug and the maximal effect of full agonist, Quinelorane, generates the Intrinsic Activity (IA) value (i.e. IA=1 full agonist, IA<1 partial agonist). fpKi values of test drug are calculated from the IC50 generated by “antagonist format” experiment, using Cheng & Prusoff equation: fKi=IC50/1+([A]/EC50) where: [A] is the concentration of the agonist […] in the assay and EC50 is the 5-HT EC50 value obtained in the same experiment. fpKi is defined as −log fKi.

T1 sequence (P35462 whole entry): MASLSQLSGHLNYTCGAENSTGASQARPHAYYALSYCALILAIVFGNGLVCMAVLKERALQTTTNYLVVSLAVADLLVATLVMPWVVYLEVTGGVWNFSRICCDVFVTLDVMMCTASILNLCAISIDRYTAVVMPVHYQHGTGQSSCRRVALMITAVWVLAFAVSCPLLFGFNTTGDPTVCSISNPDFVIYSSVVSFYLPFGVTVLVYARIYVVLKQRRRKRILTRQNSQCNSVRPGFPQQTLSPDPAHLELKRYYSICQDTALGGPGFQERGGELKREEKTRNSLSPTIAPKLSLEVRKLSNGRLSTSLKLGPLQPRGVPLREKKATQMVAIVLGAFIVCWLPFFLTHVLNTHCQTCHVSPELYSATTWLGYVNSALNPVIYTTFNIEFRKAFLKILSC

COc1ccc([C@]23C[C@H]2CN(CCCSc2nnc(-c4cccc5nc(C)ccc45)n2C)C3)cc1 (single isomer, unassigned) [Example 1 Enantiomer 1]
fpKi (D3) higher than the other Enantiomer: > 1 log-unit

Cc1ccc2c(-c3nnc(SCCCN4C[C@@H]5C[C@]5(c5ccc(Br)cc5)C4)n3C)cccc2n1 (single isomer, unassigned) [Example 2 Enantiomer 2]
fpKi (D3) higher than the other Enantiomer: > 1 log-unit

Cc1ccc2c(-c3nnc(SCCCN4C[C@@H]5C[C@]5(c5ccccc5)C4)n3C)cccc2n1 (single isomer, unassigned) [Example 3 Enantiomer 2]
fpKi (D3) higher than the other Enantiomer: > 1 log-unit

Cc1ccc2c(-c3nnc(SCCCN4C[C@@H]5C[C@]5(c5ccc(Cl)c(Cl)c5)C4)n3C)cccc2n1 (single isomer, unassigned) [Example 4 Enantiomer 1]
fpKi (D3) higher than the other Enantiomer: > 0.6 log-unit

Cc1ccc2c(-c3nnc(SCCCN4C[C@@H]5C[C@]5(c5ccc(C(C)(C)C)cc5)C4)n3C)cccc2n1 (single isomer, unassigned) [Example 5 Enantiomer 2]
fpKi (D3) higher than the other Enantiomer: > 0.9 log-unit

Cc1ncoc1-c1nnc(SCCCN2C[C@@H]3C[C@]3(c3ccc(Br)cc3)C2)n1C (single isomer, unassigned) [Example 9 Enantiomer 1]
fpKi (D3) higher than the other Enantiomer: > 1 log-unit

Cc1ncoc1-c1nnc(SCCCN2C[C@@H]3C[C@]3(c3ccc(C(F)(F)F)cc3F)C2)n1C.Cl (single isomer, unassigned) [Example 16 Enantiomer 2]
fpKi (D3) higher than the other Enantiomer: > 1 log-unit

Cc1ncoc1-c1nnc(SCCCN2C[C@@H]3C[C@]3(c3cccc(C(F)(F)F)c3)C2)n1C (single isomer, unassigned) [Example 17 Enantiomer 1]
fpKi (D3) higher than the other Enantiomer: > 1 log-unit

COc1ccc([C@]23C[C@H]2CN(CCCSc2nnc(-c4ocnc4C)n2C)C3)cc1C(C)=O (single isomer, unassigned) [Example 19 Enantiomer 1]
fpKi (D3) higher than the other Enantiomer: > 1 log-unit

Cc1ncoc1-c1nnc(SCCCN2C[C@@H]3C[C@]3(c3ccc(Cl)cc3)C2)n1C (single isomer, unassigned) [Example 20 Enantiomer 1]
fpKi (D3) higher than the other Enantiomer: > 1 log-unit

Cc1ncoc1-c1nnc(SCCCN2C[C@@H]3C[C@]3(c3ccc(F)cc3)C2)n1C (single isomer, unassigned) [Example 21 Enantiomer 1]
fpKi (D3) higher than the other Enantiomer: > 1 log-unit

Cc1ncoc1-c1nnc(SCCCN2C[C@]3(C)C[C@@]3(c3cccc(Cl)c3)C2)n1C (single isomer, unassigned) [Example 22 Enantiomer 1]
fpKi (D3) higher than the other Enantiomer: > 1 log-unit

Cc1ncoc1-c1nnc(SCCCN2C[C@@H]3C[C@]3(c3cccc(F)c3)C2)n1C (single isomer, unassigned) [Example 23 Enantiomer 1]
fpKi (D3) higher than the other Enantiomer: > 1 log-unit

COc1cccc([C@]23C[C@H]2CN(CCCSc2nnc(-c4ocnc4C)n2C)C3)c1 (single isomer, unassigned) [Example 24 Enantiomer 1]
fpKi (D3) higher than the other Enantiomer: > 1 log-unit

Cc1ncoc1-c1nnc(SCCCN2C[C@@H]3C[C@]3(c3ccc(OC(F)(F)F)cc3)C2)n1C (single isomer, unassigned) [Example 30 Enantiomer 1]
fpKi (D3) higher than the other Enantiomer: > 1 log-unit

Cc1ncoc1-c1nnc(SCCCN2C[C@@H]3C[C@]3(c3cc(C(F)(F)F)ccc3F)C2)n1C (single isomer, unassigned) [Example 36 Enantiomer 2]
fpKi (D3) higher than the other Enantiomer: > 1 log-unit

CCC(=O)c1cc([C@]23C[C@H]2CN(CCCSc2nnc(-c4ocnc4C)n2C)C3)ccc1OC (single isomer, unassigned) [Example 71 Enantiomer 1]
fpKi (D3) higher than the other Enantiomer: > 1 log-unit

Cc1nc2cc([C@]34C[C@H]3CN(CCCSc3nnc(-c5ocnc5C)n3C)C4)ccc2s1 (single isomer, unassigned) [Example 72 Enantiomer 1]
fpKi (D3) higher than the other Enantiomer: > 1 log-unit

Cc1ncoc1-c1nnc(SCCCN2C[C@@H]3C[C@]3(c3ccc4c(cnn4C)c3)C2)n1C (single isomer, unassigned) [Example 74 Enantiomer 1]
fpKi (D3) higher than the other Enantiomer: > 1 log-unit

Cc1ncoc1-c1nnc(SCCCN2C[C@@H]3C[C@]3(c3ccc(C(F)(F)F)cn3)C2)n1C (single isomer, unassigned) [Example 96 Enantiomer 2]
fpKi (D3) higher than the other Enantiomer: > 1 log-unit

Cc1ccc2c(-c3nnc(SCCCN4CC5CC5(c5ccc(Cl)cc5)C4)n3C)cccc2n1 (single isomer, unassigned; enantiomer 1) [Example 29 Enantiomer 1]
fpKi (D3) higher than the other Enantiomer: > 1 log-unit

Cc1ncoc1-c1nnc(SCCCN2C[C@@H]3C[C@]3(c3cc(F)cc(C(F)(F)F)c3)C2)n1C (single isomer, unassigned; enantiomer 1) [Example 110 Enantiomer 1]
fpKi (D3) higher than the other Enantiomer: > 1 log-unit

Cc1ncoc1-c1nnc(SCCCN2C[C@@H]3C[C@]3(c3cccc(C(F)(F)F)c3F)C2)n1C (single isomer, unassigned; enantiomer 2) [Example 111 Enantiomer 2]
fpKi (D3) higher than the other Enantiomer: > 1 log-unit
